From patent US20090257975A1, “Solid and Semi-Solid Polymeric Ionic Conjugates” (Pfizer Inc, priority 2002, published 2009)
In brackets after ≈: the same amount, converted by molar mass. Counter-ions that a name gives are not always drawn.

Test: Solubility determination of ziprasidone in pH 7.4 PBS (shaken vials, HPLC)
Assay type: physicochemical
Settings: concentration of ziprasidone in solution
Description: The following samples were evaluated for solubility: • 1. Ziprasidone-polymer ionic conjugate FIVE (40% ziprasidone, 60% polymer composed of Lactide/Glycolide/Malic acid at molar ratios of 4:1:0.65M) • 2. Ziprasidone-polymer ionic conjugate in gel former (Solution of Conjugate FIVE in a typical gel former, The conjugate was dissolved in a mixture (1:1 by weight) with a mixture of two gel formers made individually of PEG-400 grafted with Trimethylene carbonate/Caprolactone/Glycolide and PEG-400 grafted with Lactide/Glycolide • 3. Ziprasidone mesylate salt • 4. Ziprasidone free base
Excess of each of the above sample were placed in a screw-cap vial with 2 ml of pH 7.4, PBS (Dulbecco's Phosphate-Buffered Saline) solution, and the vials were shaken continuously for 7 days. Ziprasidone free base and its mesylate salt were used as controls. The concentration of ziprasidone in solution was determined at 15 minutes, 6 hours, 24 hours, and 7 days. The HPLC samples were prepared by filtering each suspension through a 0.22-μm syringe filter without any additional dilutions

solubility at 6 h (Dulbecco's phosphate-buffered saline (PBS), aqueous buffer, thermodynamic from solid, time point 6 hours)	Solubility (time point 15 minutes)	Solubility (time point 7 days)	solubility at 15 min (Dulbecco's phosphate-buffered saline (PBS), aqueous buffer, thermodynamic from solid, time point 15 minutes)	Solubility (time point 6 hours)	SMILES
0.2 µg/mL (≈ 0.484 µM)	Below	Below	–	–	O=C1Cc2cc(CCN3CCN(c4nsc5ccccc45)CC3)c(Cl)cc2N1 [Ziprasidone Free Base, 5-[2-[4-(1,2-benzisothiazol-3-yl)-1-piperazinyl]ethyl]-6-chloro-1,3-dihydro-2H-indol-2-one]
–	–	1.3 µg/mL	1.5 µg/mL	1.1 µg/mL	O=C1Cc2cc(CCN3CCN(c4nsc5ccccc45)CC3)c(Cl)cc2N1 [Ziprasidone Mesylate]
